Measurements published in patent US9920010B2, “CXCR7 receptor modulators” (IDORSIA PHARMACEUTICALS LTD, priority 2013, dated 2018).

target: T1, CXCR7 (Homo sapiens, UniProt P25106); test: PathHunter CHO-K1 CXCR7 b-arrestin recruitment assay (CXCR7 agonistic activity); format: cell-based; details: PathHunter CHO-K1 CXCR7 b-arrestin cell line
T1 construct: host or cells: CHO-K1 (PathHunter CHO-K1 CXCR7 b-arrestin cell line, stably transfected)
In short: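 Stable CHO-K1 line with C-terminally ProLink-tagged CXCR7 and β-arrestin 2–EA fusion; β-arrestin recruitment restores β-gal activity, read by chemiluminescence after 1 h RT detection. Cells seeded 24 h, starved in OPTIMEM 3–4 h, exposed to compounds 90 min at 37 °C in HBSS/HEPES/BSA. Geometric-mean EC50 from repeated measurements.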

T1 sequence (P25106 whole entry): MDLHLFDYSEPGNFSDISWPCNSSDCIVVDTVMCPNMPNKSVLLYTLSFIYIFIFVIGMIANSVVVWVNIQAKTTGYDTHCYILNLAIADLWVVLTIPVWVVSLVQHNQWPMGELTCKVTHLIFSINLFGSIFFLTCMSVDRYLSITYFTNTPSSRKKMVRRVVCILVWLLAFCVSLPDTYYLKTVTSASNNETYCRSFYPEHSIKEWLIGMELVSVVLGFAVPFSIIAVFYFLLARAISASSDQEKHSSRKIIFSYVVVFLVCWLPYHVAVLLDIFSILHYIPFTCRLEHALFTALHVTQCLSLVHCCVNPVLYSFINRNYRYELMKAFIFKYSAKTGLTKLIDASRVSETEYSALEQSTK
T1 sequence (P32121 whole entry partner): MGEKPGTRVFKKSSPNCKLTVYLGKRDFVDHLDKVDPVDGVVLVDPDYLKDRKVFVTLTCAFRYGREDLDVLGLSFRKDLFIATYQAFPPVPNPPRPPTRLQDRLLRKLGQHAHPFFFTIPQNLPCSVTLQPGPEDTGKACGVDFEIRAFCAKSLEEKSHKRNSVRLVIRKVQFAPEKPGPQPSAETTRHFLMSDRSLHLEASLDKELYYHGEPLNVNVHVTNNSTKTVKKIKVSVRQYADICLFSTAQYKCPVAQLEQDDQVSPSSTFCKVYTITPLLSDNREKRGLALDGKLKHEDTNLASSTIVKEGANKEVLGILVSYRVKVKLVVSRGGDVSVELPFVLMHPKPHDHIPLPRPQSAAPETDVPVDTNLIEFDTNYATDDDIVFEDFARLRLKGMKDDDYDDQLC

SMILES	EC50
C=CCN1CCc2cccc(CCC(=O)N(CCN(C)C)Cc3ccccc3C(F)(F)F)c2C1 [compound 468, 3-(2-Allyl-1,2,3,4-tetrahydro-isoquinolin-8-yl)-N-(2-dimethylamino-ethyl)-N-(2-trifluoromethyl-benzyl)-propionamide]	10 nM
CN(C)CCN(Cc1cccc(OC(F)(F)F)c1)C(=O)CNc1cccc2c1CN(CC1CC1)CC2 [compound 471, 2-(2-Cyclopropylmethyl-1,2,3,4-tetrahydro-isoquinolin-8-ylamino)-N-(2-dimethylamino-ethyl)-N-(3-trifluoromethoxy-benzyl)-acetamide]	21 nM
CN(C)CCN(Cc1ccccc1OC(F)(F)F)C(=O)CNc1cccc2c1CN(CC1CC1)CC2 [compound 472, 2-(2-Cyclopropylmethyl-1,2,3,4-tetrahydro-isoquinolin-8-ylamino)-N-(2-dimethylamino-ethyl)-N-(2-trifluoromethoxy-benzyl)-acetamide]	21 nM
CN(C)CCN(Cc1ccc(OC(F)(F)F)cc1)C(=O)CNc1cccc2c1CN(CC1CC1)CC2 [compound 473]	102 nM
O=C(CNc1cccc2c1CN(CC1CC1)CC2)N(CCN1CCC(F)(F)CC1)Cc1ccccc1C(F)(F)F [compound 474, 2-(2-Cyclopropylmethyl-1,2,3,4-tetrahydro-isoquinolin-8-ylamino)-N-[2-(4,4-difluoro-piperidin-1-yl)-ethyl]-N-(2-trifluoromethyl-benzyl)-acetamide]	47 nM
CN(C)CCN(Cc1ccccc1C(F)(F)F)C(=O)CNc1cccc2c1CN(CC1CC1)CC2 [compound 475]	121 nM
O=C(CNc1cccc2c1CN(CC1CC1)CC2)N(CCN1CCC(F)(F)CC1)Cc1ncccc1C(F)(F)F [compound 476]	15 nM
CN(CCN(Cc1ncccc1C(F)(F)F)C(=O)CNc1cccc2c1CN(CC1CC1)CC2)CC(F)(F)F [compound 477]	63 nM
O=C(CNc1cccc2c1CN(CC1CC1)CC2)N(CCN1CCCC(F)(F)C1)Cc1ccccc1C(F)(F)F [compound 478]	92 nM
O=C(CNc1cccc2c1CN(CC1CC1)CC2)N(CCN1CCC(F)(F)C1)Cc1ccccc1C(F)(F)F [compound 479]	78 nM
O=C(CNc1cccc2c1CN(CC1CC1)CC2)N(CCN1CCCC(F)(F)C1)Cc1ncccc1C(F)(F)F [compound 480, 2-(2-Cyclopropylmethyl-1,2,3,4-tetrahydro-isoquinolin-8-ylamino)-N-[2-(3,3-difluoro-piperidin-1-yl)-ethyl]-N-(3-trifluoromethyl-pyridin-2-ylmethyl)-acetamide]	28 nM
O=C(CNc1cccc2c1CN(CC1CC1)CC2)N(CCN1CCC(F)(F)C1)Cc1ncccc1C(F)(F)F [compound 481, 2-(2-Cyclopropylmethyl-1,2,3,4-tetrahydro-isoquinolin-8-ylamino)-N-[2-(3,3-difluoro-pyrrolidin-1-yl)-ethyl]-N-(3-trifluoromethyl-pyridin-2-ylmethyl)-acetamide]	41 nM
O=C(CNc1cccc2c1CN(CC1CC1)CC2)N(CC(=O)N1CC(F)(F)C1)Cc1ccccc1C(F)(F)F [compound 482, 2-(2-Cyclopropylmethyl-1,2,3,4-tetrahydro-isoquinolin-8-ylamino)-N-[2-(3,3-difluoro-azetidin-1-yl)-2-oxo-ethyl]-N-(2-trifluoromethyl-benzyl)-acetamide]	32 nM
O=C(CNc1cccc2c1CN(CC1CC1)CC2)N(CC(=O)N1CC(F)(F)C1)Cc1ncccc1C(F)(F)F [compound 483, 2-(2-Cyclopropylmethyl-1,2,3,4-tetrahydro-isoquinolin-8-ylamino)-N-[2-(3,3-difluoro-azetidin-1-yl)-2-oxo-ethyl]-N-(3-trifluoromethyl-pyridin-2-ylmethyl)-acetamide]	33 nM
O=C(CNc1cccc2c1CN(CC1CC1)CC2)N(CCN1CC(F)(F)C1)Cc1ccccc1C(F)(F)F [compound 484]	79 nM
CN(C)CCN(Cc1ncccc1Cl)C(=O)CNc1cccc2c1CN(CC1CC1)CC2 [compound 485, N-(3-Chloro-pyridin-2-ylmethyl)-2-(2-cyclopropylmethyl-1,2,3,4-tetrahydro-isoquinolin-8-ylamino)-N-(2-dimethylamino-ethyl)-acetamide]	8 nM
CN(C)CCN(Cc1ncccc1Br)C(=O)CNc1cccc2c1CN(CC1CC1)CC2 [compound 486, N-(3-Bromo-pyridin-2-ylmethyl)-2-(2-cyclopropylmethyl-1,2,3,4-tetrahydro-isoquinolin-8-ylamino)-N-(2-dimethylamino-ethyl)-acetamide]	5 nM
CC(C)(O)CN(Cc1ncccc1Cl)C(=O)CNc1cccc2c1CN(CC1CC1)CC2 [compound 487]	100 nM
CC(C)(O)CN(Cc1ncccc1Br)C(=O)CNc1cccc2c1CN(CC1CC1)CC2 [compound 488]	91 nM
CCN1CCc2cccc(NCC(=O)N(CCN3CCCC3)Cc3ccccc3C(F)(F)F)c2C1 [compound 489, 2-(2-Ethyl-1,2,3,4-tetrahydro-isoquinolin-8-ylamino)-N-(2-pyrrolidin-1-yl-ethyl)-N-(2-trifluoromethyl-benzyl)-acetamide]	7 nM
CCN(CC)CCN(Cc1ccccc1)C(=O)CNc1cccc2c1CN(CC)CC2 [compound 490, N-Benzyl-N-(2-diethylamino-ethyl)-2-(2-ethyl-1,2,3,4-tetrahydro-isoquinolin-8-ylamino)-acetamide]	21 nM
CCN1CCc2cccc(NCC(=O)N(CCN(C)C)Cc3ccccc3F)c2C1 [compound 491, N-(2-Dimethylamino-ethyl)-2-(2-ethyl-1,2,3,4-tetrahydro-isoquinolin-8-ylamino)-N-(2-fluoro-benzyl)-acetamide]	21 nM
CCN1CCc2cccc(NCC(=O)N(Cc3ccccc3C(F)(F)F)C3CCN(C)CC3)c2C1 [compound 492, 2-(2-Ethyl-1,2,3,4-tetrahydro-isoquinolin-8-ylamino)-N-(1-methyl-piperidin-4-yl)-N-(2-trifluoromethyl-benzyl)-acetamide]	41 nM
CCN1CCc2cccc(NCC(=O)N(CCN(C)C(=O)OC(C)(C)C)Cc3ccccc3)c2C1 [compound 493]	249 nM
CCN1CCc2cccc(NCC(=O)N(CCN(C)C)Cc3ccccc3C)c2C1 [compound 494, N-(2-Dimethylamino-ethyl)-2-(2-ethyl-1,2,3,4-tetrahydro-isoquinolin-8-ylamino)-N-(2-methyl-benzyl)-acetamide]	28 nM
CCN1CCc2cccc(NCC(=O)N(CCN(C)C)Cc3cccc(C)c3)c2C1 [compound 495]	63 nM
CCN1CCc2cccc(NCC(=O)N(CCN(C)C)Cc3ccc(C)cc3)c2C1 [compound 496]	79 nM
CCN1CCc2cccc(NCC(=O)N(CCN(C)C)Cc3ccccc3OC)c2C1 [compound 497]	77 nM
CCN1CCc2cccc(NCC(=O)N(CCN(C)C)Cc3cccc(OC)c3)c2C1 [compound 498]	118 nM

Now from value to compound:

EC50	SMILES
245 nM	CCN1CCc2cccc(NCC(=O)N(CCN(C)C)Cc3ccc(OC)cc3)c2C1 [compound 499]
31 nM	CCN1CCc2cccc(NCC(=O)N(CCN(C)C)Cc3ccccc3Cl)c2C1 [compound 500, N-(2-Chloro-benzyl)-N-(2-dimethylamino-ethyl)-2-(2-ethyl-1,2,3,4-tetrahydro-isoquinolin-8-ylamino)-acetamide]
54 nM	CCN1CCc2cccc(NCC(=O)N(CCN(C)C)Cc3cccc(Cl)c3)c2C1 [compound 501]
113 nM	CCN1CCc2cccc(NCC(=O)N(CCN(C)C)Cc3ccc(Cl)cc3)c2C1 [compound 502]
65 nM	CCN1CCc2cccc(NCC(=O)N(CCN(C)C)Cc3cccc(F)c3)c2C1 [compound 503]
93 nM	CCN1CCc2cccc(NCC(=O)N(CCN(C)C)Cc3ccc(F)cc3)c2C1 [compound 504]
42 nM	CCN1CCc2cccc(NCC(=O)N(CCN(C)C)Cc3cccc(C(F)(F)F)c3)c2C1 [compound 505, N-(2-Dimethylamino-ethyl)-2-(2-ethyl-1,2,3,4-tetrahydro-isoquinolin-8-ylamino)-N-(3-trifluoromethyl-benzyl)-acetamide]
155 nM	CCN1CCc2cccc(NCC(=O)N(CCN(C)C)Cc3ccc(C(F)(F)F)cc3)c2C1 [compound 506]
74 nM	CCN1CCc2cccc(NCC(=O)N(CCCN(C)C)Cc3ccccc3)c2C1 [compound 507]
36 nM	CCN1CCc2cccc(NCC(=O)N(CCN3CCCC3)Cc3ccccc3)c2C1 [compound 509, N-Benzyl-2-(2-ethyl-1,2,3,4-tetrahydro-isoquinolin-8-ylamino)-N-(2-pyrrolidin-1-yl-ethyl)-acetamide]
109 nM	CCN1CCc2cccc(NCC(=O)N(CCN3CCOCC3)Cc3ccccc3C(F)(F)F)c2C1 [compound 510]
29 nM	CCN1CCc2cccc(NCC(=O)N(CCN(C)C)Cc3ncccc3Cl)c2C1 [compound 511, N-(3-Chloro-pyridin-2-ylmethyl)-N-(2-dimethylamino-ethyl)-2-(2-ethyl-1,2,3,4-tetrahydro-isoquinolin-8-ylamino)-acetamide]
377 nM	CCN1CCc2cccc(NCC(=O)N(CCC(C)C)Cc3ccccc3C(F)(F)F)c2C1 [compound 513]
6 nM	CCN(CC)CCN(Cc1ccccc1C(F)(F)F)C(=O)CNc1cccc2c1CN(CC)CC2 [compound 514, N-(2-Diethylamino-ethyl)-2-(2-ethyl-1,2,3,4-tetrahydro-isoquinolin-8-ylamino)-N-(2-trifluoromethyl-benzyl)-acetamide]
382 nM	CCN1CCc2cccc(NCC(=O)N(CCN(C)C(=O)OC(C)(C)C)Cc3ccccc3C(F)(F)F)c2C1 [compound 515]
181 nM	CCN1CCc2cccc(NCC(=O)N(CCC#N)Cc3ccccc3C(F)(F)F)c2C1 [compound 516]
302 nM	CCN1CCc2cccc(NCC(=O)N(CCN3CCCC3=O)Cc3ccccc3C(F)(F)F)c2C1 [compound 517]
250 nM	CCN1CCc2cccc(NCC(=O)N(Cc3ccccc3C(F)(F)F)C3CCOCC3)c2C1 [compound 519]
